Data as given in US20140315886A1, “QUINAZOLINES AS THERAPEUTIC COMPOUNDS AND RELATED METHODS OF USE” (OTSUKA PHARMACEUTICAL CO., LTD., priority 2011, published 2014).
Where a name gives a salt, the structure may show the parent alone.

These molecules were tested against T1, purified STEP46 enzyme (Homo sapiens, UniProt P54829) (assay: STEP46 biochemical assay (DiFMUP fluorescence phosphatase assay)). Conditions: DiFMUP 10 μM, read-out: STEP IC50.
T1 sequence (P54829 197-565 limits assumed): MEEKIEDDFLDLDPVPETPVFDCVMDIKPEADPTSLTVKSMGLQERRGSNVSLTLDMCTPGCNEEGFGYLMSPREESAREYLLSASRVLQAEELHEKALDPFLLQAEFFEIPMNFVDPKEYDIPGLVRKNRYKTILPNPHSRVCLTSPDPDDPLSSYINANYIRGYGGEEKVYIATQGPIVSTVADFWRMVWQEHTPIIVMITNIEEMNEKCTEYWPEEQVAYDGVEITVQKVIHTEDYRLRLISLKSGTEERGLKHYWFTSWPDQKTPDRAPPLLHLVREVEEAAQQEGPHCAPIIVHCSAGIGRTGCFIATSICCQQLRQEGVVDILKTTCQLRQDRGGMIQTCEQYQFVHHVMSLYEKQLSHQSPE
Procedure: Serial dilutions of compounds were performed in 100% DMSO and 1 uL of compounds were dispensed into 384-well black polystyrene plates (Corning, N.Y.). Compounds were incubated with 24 uL of buffer containing 50 mM Hepes, 1 mM DTT, 0.02% Brij35, 1 ng/well purified STEP46 enzyme for […] at room temperature. The reaction was initiated by addition of 25 uL of DiFMUP (6,8-difluoro-4-methylumbelliferyl phosphate) (InVitrogen, CA) with a final concentration of 10 μM and incubated at 27° C. for 90 mM Final DMSO concentration is 2%. Plates were read with florescence intensity at excitation/emission of 360/460 nm using a PheraStar plate reader (BMG Labtech, NC).
Data were expressed as percentage (%) inhibition of enzyme activity. 0% inhibition is defined as the RFUs (relative fluorescence units) in the absence of compounds and 100% inhibition is defined as RFUs in the absence of STEP46 enzyme. IC50 values of compounds with inhibitory activity against STEP46 were determined by GraphPad Prism (version 4.03) using four parameter logistic equation. Some compounds act as activators. For compounds showing STEP46 enzymatic activation, data are represented as percentage of inhibition but with negative values at three representative concentrations (25, 50 and 100 uM).

| SMILES | IC50 [nM] |
| --- | --- |
| CNc1nc(-c2cccnc2)nc2c(F)cc(-c3ccccc3OC)cc12 [Compound 566] | > 10000 |
| CCOc1cccc(-c2ccc3nc(-c4cccnc4)nc(NC)c3c2)c1F [Compound 242] | > 10000 |
| Cn1ccc2cc(-c3ccc4nc(-c5cccnc5)nc(NCCc5ccccn5)c4c3)ccc21 [Compound 346] | < 1000 |
| Fc1ccc(-c2ccc3nc(-c4cccnc4)nc(N4CCc5cc(Cl)ccc54)c3c2)c(F)c1 [Compound 72] | 1000 to 10000 |
| [2H]C([2H])([2H])Nc1nc(-c2cccnc2)nc2cc(-c3cc(F)ccc3F)ccc12 [Compound 390] | 1000 to 10000 |
| CNc1nc(-c2cccnc2)nc2cc(-c3cccc(OCC(=O)N(C)C)c3)ccc12 [Compound 138] | 1000 to 10000 |
| CCCOc1ccc2nc(-c3cccnc3)nc(N3CCc4cc(Cl)ccc43)c2c1 [Compound 137] | < 1000 |
| COc1ccc2nc(-c3cccnc3)nc(Nc3cccc(F)n3)c2c1 [Compound 32] | > 10000 |
| CNc1nc(-c2cccnc2)nc2cc(OC(F)(F)F)c(-c3cccc(F)c3F)cc12 [Compound 404] | 1000 to 10000 |
| CNc1nc(-c2cccnc2)nc2ccc(-c3ccc(F)c(C(N)=O)c3)cc12 [Compound 183] | 1000 to 10000 |
| CNc1nc(-c2cccnc2)nc2ccc(-c3cccc(F)c3)c(F)c12 [Compound 223] | 1000 to 10000 |
| CNc1nc(-c2cccnc2)nc2c(OC)cc(-c3ccc(Cl)cc3)cc12 [Compound 307] | 1000 to 10000 |
| CNc1nc(-c2cccnc2)nc2c(F)c(-c3ccncc3)ccc12 [Compound 519] | 1000 to 10000 |
| CNc1nc(-c2cccnc2)nc2ccc(-c3cccc(-c4ncco4)c3)cc12 [Compound 250] | < 1000 |
| CNc1nc(-c2cccnc2)nc2c(F)c(-c3ccc(C#N)cc3)ccc12 [Compound 512] | < 1000 |
| CNc1nc(-c2cnccn2)nc2cc(-c3cccc(F)c3)ccc12 [Compound 392] | 1000 to 10000 |
| CNc1nc(-c2cccnc2)nc2c(F)c(-c3cc4ccccc4s3)ccc12 [Compound 534] | > 10000 |
| CNc1nc(-c2cccnc2)nc2cc(F)c(-c3cccc(F)c3F)cc12 [Compound 594] | 1000 to 10000 |
| CNc1nc(-c2cccnc2)nc2ccc(-c3ccnc(C#N)c3)cc12 [Compound 167] | 1000 to 10000 |
| CNc1nc(-c2cccnc2)nc2c(-c3cc(F)cc(OC)c3)ccc(OC)c12 [Compound 498] | 1000 to 10000 |
| CC(Nc1nc(-c2cccnc2)nc2ccc(-c3ccc(F)cc3)cc12)c1ccccc1 (stereo not drawn) [Compound 605] | 1000 to 10000 |
| CNc1nc(-c2cnccn2)nc2cc(-c3cc(F)ccc3F)ccc12 [Compound 396] | 1000 to 10000 |
| Fc1ccc(-c2ccc3nc(-c4cccnc4)nc(-c4cncs4)c3c2)c(F)c1 [Compound 417] | < 1000 |
| c1ccc(CNc2nc(-c3cccnc3)nc3ccc(-c4ccco4)cc23)nc1 [Compound 348] | 1000 to 10000 |
| CNc1nc(-c2cccnc2)nc2ccc(-c3ccc4c(c3)N(C)C(=O)CO4)cc12 [Compound 467] | 1000 to 10000 |
| CNc1nc(-c2cccnc2)nc2cc(-c3cccc(F)c3C)ccc12 [Compound 324] | 1000 to 10000 |
| CNc1nc(-c2cccnc2)nc2c(F)c(-c3ccc4c(cnn4C)c3)ccc12 [Compound 532] | < 1000 |
| Cc1ccc2c(c1)CCN2c1nc(-c2cccnc2)nc2ccc(-c3ccc(C#N)cc3)cc12 [Compound 81] | 1000 to 10000 |

Second part, the molecule after the results:

| IC50 [nM] | SMILES |
| --- | --- |
| 1000 to 10000 | CCOc1ccc2nc(-c3cccnc3)nc(Nc3cc(C)c(F)cn3)c2c1 [Compound 67] |
| > 10000 | Cc1ccc2c(c1)CCN2c1nc(-c2cccnc2)nc2ccc(-c3cc(F)cc(F)c3)cc12 [Compound 80] |
| < 1000 | CNc1nc(-c2cccnc2)nc2ccc(-c3ccc4[nH]c(=O)[nH]c4c3)cc12 [Compound 168] |
| 1000 to 10000 | CNc1nc(-c2cnccn2)nc2c(F)c(-c3ccc(F)cc3F)ccc12 [Compound 995] |
| > 10000 | COc1ccc2c(c1)CCN2c1nc(-c2cccnc2)nc2ccc(Br)cc12 [Compound 21] |
| > 10000 | CNc1nc(-c2cccnc2)nc2cc(-c3ccoc3C)ccc12 [Compound 275] |
| 1000 to 10000 | Clc1ccc2c(c1)N(c1nc(-c3cccnc3)nc3ccc(Br)cc13)CC2 [Compound 23] |
| 1000 to 10000 | Cc1noc(C)c1-c1nc(-c2cccnc2)nc2ccc(-c3ccc(F)cc3F)cc12 [Compound 422] |
| 1000 to 10000 | CNc1nc(-c2cccnc2)nc2c(-c3ccc(F)cc3F)ccc(OC)c12 [Compound 490] |
| 1000 to 10000 | CNc1nc(-c2cccnc2)nc2c(Cl)cc(-c3ccc(F)cc3F)cc12 [Compound 244] |
| < 1000 | CNc1nc(-c2cccnc2)nc2ccc(-c3cc4[nH]c(=O)oc4cc3F)cc12 [Compound 477] |
| < 1000 | CNc1nc(-c2cccnc2)nc2cc(-c3cc(F)cc(F)c3)c(F)cc12 [Compound 555] |
| 1000 to 10000 | CNc1nc(-c2cccnc2)nc2ccc(-c3cccc4c3CNC4=O)cc12 [Compound 450] |
| 1000 to 10000 | CNc1nc(-c2cccnc2)nc2ccc(-c3ccc4c(c3)C(=O)NCCO4)cc12 [Compound 479] |
| 1000 to 10000 | CNc1nc(-c2cccnc2)nc2ccc(OCCCN3CCN(C)CC3)cc12 [Compound 136, N-methyl-6-(3-(4-methylpiperazin-1-yl)propoxy)-2-(pyridin-3-yl)quinazolin-4-amine tetrahydrochloride] |
| < 1000 | CNc1nc(-c2cccnc2)nc2c(F)cc(-c3cccc(C#N)c3)cc12 [Compound 570] |

| IC50 [nM] | SMILES |
| --- | --- |
| < 1000 | O=[N+]([O-])c1ccc2c(c1)CCN2c1nc(-c2cccnc2)nc2ccc(-c3ccc(F)cc3)cc12 [Compound 87] |
| > 10000 | CNc1nc(-c2cccnc2)nc2ccc(-c3ccc4c(c3)OCCCO4)cc12 [Compound 170] |
| < 1000 | CNc1nc(-c2cccnc2)nc2ccc(-c3ccc4c(c3)NC(=O)CO4)cc12 [Compound 469] |
| 1000 to 10000 | Fc1cccc(-c2ccc3c(N4CCc5cc(Cl)ccc54)nc(-c4cccnc4)nc3c2)c1 [Compound 96] |
| 1000 to 10000 | Fc1ccc(F)c(-c2ccc3nc(-c4cccnc4)nc(NCCc4ccccn4)c3c2)c1 [Compound 339] |
| < 1000 | CNc1nc(-c2cccnc2)nc2c(C)c(-c3cc(F)c(F)c(F)c3)ccc12 [Compound 289] |
| 1000 to 10000 | COc1ccc(-c2ccc3nc(-c4cccnc4)nc(NCc4ccccn4)c3c2)cc1 [Compound 344] |
| 1000 to 10000 | CNc1nc(-c2cccnc2)nc2c(F)c(-c3cccc4sccc34)ccc12 [Compound 538] |
| 1000 to 10000 | CNc1nc(-c2cccnc2)nc2ccc(-c3ccc(C)cc3F)cc12 [Compound 239] |
| 1000 to 10000 | CNc1nc(-c2cccnc2)nc2c(F)c(-c3ccc(C(F)(F)F)cc3)ccc12 [Compound 528] |
| 1000 to 10000 | Cc1ccc(Nc2nc(-c3cccnc3)nc3ccc(-c4ccc(F)cc4)cc23)nc1 [Compound 441] |
| < 1000 | Fc1ccc(-c2ccc3nc(-c4cccnc4)nc(-c4nccs4)c3c2)c(F)c1 [Compound 416] |
| > 10000 | COc1ccc2nc(-c3cccnc3)nc(Nc3cc(Cl)ccn3)c2c1 [Compound 45, N-(4-chloropyridin-2-yl)-6-methoxy-2-(pyridin-3-yl)quinazolin-4-amine] |
| 1000 to 10000 | Fc1ccc(-c2ccc3nc(-c4cccnc4)nc(N4CCc5cc(F)ccc54)c3c2)cc1 [Compound 91] |
| < 1000 | CNc1nc(-c2cccnc2)nc2cc(F)c(-c3ccc(F)cc3F)cc12 [Compound 196] |
| 1000 to 10000 | COc1ccc2c(Nc3ccc(C)cn3)nc(-c3cccnc3)nc2c1 [Compound 55] |
